# Target: GST-Bcl-2 (Homo sapiens (Human), UniProt P10415)
# Assay: Time Resolved-Fluorescence Resonance Energy Transfer (TR-FRET) Bcl-2 binding assay
# Settings: GST-Bcl-2 1 nM, F-Bak peptide probe 100 nM, Tb-anti-GST antibody 1 nM; Ki by Wang's equation
# How it was run: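 Ki values derived from TR-FRET displacement of F-Bak peptide from GST-Bcl-2, detected with Tb-labelled anti-GST antibody (ex 340, em 520/495 nm). Compound dilution series started at 50 μM (2× starting concentration); room-temperature incubation 3 hours.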
# Sequence of GST-Bcl-2 (P10415 whole entry): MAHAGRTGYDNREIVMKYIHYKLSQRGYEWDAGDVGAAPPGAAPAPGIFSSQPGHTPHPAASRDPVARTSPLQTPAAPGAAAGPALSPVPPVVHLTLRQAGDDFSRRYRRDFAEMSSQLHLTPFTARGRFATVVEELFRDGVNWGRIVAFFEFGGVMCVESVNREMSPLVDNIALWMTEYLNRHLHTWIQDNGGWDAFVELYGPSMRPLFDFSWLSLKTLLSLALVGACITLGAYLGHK
row,Compound,Ki [nM]
1,"CC1(C)CCC(CN2CCN(c3ccc(C(=O)NS(=O)(=O)c4ccc(NCC5CCOCC5)c([N+](=O)[O-])c4)c(Oc4ccc(N)c(Cl)c4)c3)CC2)=C(c2ccc(Cl)cc2)C1 [Example 247, 2-(4-amino-3-chlorophenoxy)-4-(4-{[2-(4-chlorophenyl)-4,4-dimethylcyclohex-1-en-1-yl]methyl}piperazin-1-yl)-N-({3-nitro-4-[(tetrahydro-2H-pyran-4-ylmethyl)amino]phenyl}sulfonyl)benzamide]",0.039
2,"CN(C)CCCNc1ccc(S(=O)(=O)NC(=O)c2ccc(N3CCN(Cc4ccccc4-c4ccc(Cl)cc4)CC3)cc2Oc2ccccc2Cl)cc1[N+](=O)[O-] [Example 11, 4-(4-((4′-chloro-1,1′-biphenyl-2-yl)methyl)piperazin-1-yl)-2-(2-chlorophenoxy)-N-((4-((3-(dimethylamino)propyl)amino)-3-nitrophenyl)sulfonyl)benzamide]",0.171
3,"CC1(C)CCC(CN2CCN(c3ccc(C(=O)NS(=O)(=O)c4ccc(OCC5(F)CCN(C(CF)CF)CC5)c([N+](=O)[O-])c4)c(Oc4cnc(N)c(Cl)c4)c3)CC2)=C(c2ccc(Cl)cc2)C1 [Example 371, 2-[(6-amino-5-chloropyridin-3-yl)oxy]-4-(4-{[2-(4-chlorophenyl)-4,4-dimethylcyclohex-1-en-1-yl]methyl}piperazin-1-yl)-N-{[4-({4-fluoro-1-[2-fluoro-1-(fluoromethyl)ethyl]piperidin-4-yl}methoxy)-3-nitrophenyl]sulfonyl}benzamide]",< 0.01
4,"CCN1CCOCC1COc1ccc(S(=O)(=O)NC(=O)c2ccc(N3CCN(CC4=C(c5ccc(Cl)cc5)CC(C)(C)CC4)CC3)cc2Oc2cc3cc[nH]c3cc2F)cc1[N+](=O)[O-] (centres unmarked) [Example 328, 4-(4-{[2-(4-chlorophenyl)-4,4-dimethylcyclohex-1-en-1-yl]methyl}piperazin-1-yl)-N-({4-[(4-ethylmorpholin-3-yl)methoxy]-3-nitrophenyl}sulfonyl)-2-[(6-fluoro-1H-indol-5-yl)oxy]benzamide]",0.068
5,"CN1CCN(Nc2ccc(S(=O)(=O)NC(=O)c3ccc(N4CCN(CC5=C(c6ccc(Cl)cc6)CC(C)(C)CC5)CC4)cc3Oc3cccc(Cl)c3)cc2[N+](=O)[O-])CC1 [Example 199, 2-(3-chlorophenoxy)-4-(4-{[2-(4-chlorophenyl)-4,4-dimethylcyclohex-1-en-1-yl]methyl}piperazin-1-yl)-N-({4-[(4-methylpiperazin-1-yl)amino]-3-nitrophenyl}sulfonyl)benzamide]",0.244
6,"CN(C)CCOc1ccc(-c2ccc(Cl)cc2)c(CN2CCN(c3ccc(C(=O)NS(=O)(=O)c4ccc(NC5CCN(C)CC5)c([N+](=O)[O-])c4)c(Oc4cccc(Cl)c4)c3)CC2)c1 [Example 37, 4-(4-((4′-chloro-4-(2-(dimethylamino)ethoxy)-1,1′-biphenyl-2-yl)methyl)piperazin-1-yl)-2-(3-chlorophenoxy)-N-((4-((1-methylpiperidin-4-yl)amino)-3-nitrophenyl)sulfonyl)benzamide]",0.005
7,"CC(=O)Nc1cccc(Oc2cc(N3CCN(CC4=C(c5ccc(Cl)cc5)CC(C)(C)CC4)CC3)ccc2C(=O)NS(=O)(=O)c2ccc(NC3CCN(C4CCOCC4)CC3)c([N+](=O)[O-])c2)c1 [Example 225, 2-[3-(acetylamino)phenoxy]-4-(4-{[2-(4-chlorophenyl)-4,4-dimethylcyclohex-1-en-1-yl]methyl}piperazin-1-yl)-N-({3-nitro-4-[(1-tetrahydro-2H-pyran-4-ylpiperidin-4-yl)amino]phenyl}sulfonyl)benzamide]",3.28
8,"CC1(C)CCC(CN2CCN(c3ccc(C(=O)NS(=O)(=O)c4ccc(NCC5(N)CCOCC5)c([N+](=O)[O-])c4)c(Oc4cc5cc[nH]c5cc4F)c3)CC2)=C(c2ccc(Cl)cc2)C1 [Example 248, N-[(4-{[(4-aminotetrahydro-2H-pyran-4-yl)methyl]amino}-3-nitrophenyl)sulfonyl]-4-(4-{[2-(4-chlorophenyl)-4,4-dimethylcyclohex-1-en-1-yl]methyl}piperazin-1-yl)-2-[(6-fluoro-1H-indol-5-yl)oxy]benzamide]",0.051

# Source: patent publication US8952157B2, “Apoptosis-inducing agents for the treatment of cancer and immune and autoimmune diseases” (AbbVie Inc., priority 2008, dated 2015)
